One may read the EC50 as the concentration at which the effect is half-maximal.

This assay deals with T1, GPR120 (Homo sapiens, UniProt Q5NUL3).
T1 construct: expressed in transfected cells; host or cells: CHO mitoPhotinaGPR120 cells
T1 sequence (Q5NUL3 1-361): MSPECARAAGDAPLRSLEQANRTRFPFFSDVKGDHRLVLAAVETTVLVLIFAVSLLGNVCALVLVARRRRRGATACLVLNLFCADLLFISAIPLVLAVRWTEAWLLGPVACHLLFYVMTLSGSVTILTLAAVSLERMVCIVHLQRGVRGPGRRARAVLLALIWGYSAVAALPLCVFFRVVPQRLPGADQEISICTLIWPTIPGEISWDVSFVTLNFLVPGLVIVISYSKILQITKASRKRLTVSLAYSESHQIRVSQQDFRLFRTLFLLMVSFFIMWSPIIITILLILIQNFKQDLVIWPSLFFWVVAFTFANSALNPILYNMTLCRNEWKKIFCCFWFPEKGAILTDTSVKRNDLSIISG
Kind of assay: GPR120 agonism in CHO mitoPhotinaGPR120 cell based assay with fluorescent (Fluo-8 calcium, FLIPRTetra) readout, Agonist Mode, dose response. The note with it: CHO mitoPhotinaGPR120 cells, Fluo-8 No Wash Ca2+ dye, dose response in quadruplicate, 0.0033% fatty acid free BSA. On the procedure:
Compounds of the invention were tested for GPR120 agonism in a CHO mitoPhotinaGPR120 cell based assay with fluorescent readout in Agonist Mode in dose response in quadruplicate with intra-plate modality.
Twenty (20) h after seeding, growth medium was manually removed and cells were starved in the presence of 25 μL/w of Standard Tyrode's Buffer. After 3 h, cells were loaded with 20 μL/w of 0.5× Fluo-8 No Wash (AAT Bioquest, Inc.) Ca2+ sensitive dye prepared in Standard Tyrode's Buffer. Cells were incubated for 1 h at room temperature in the dark. Ten (10) μL/w 3× of controls and compounds were diluted in Standard Tyrode's Buffer+0.01% fatty acid free BSA (final concentration=0.0033%) and injected at the FLIPRTetra®, recording the kinetic calcium traces for 3 minutes. Standard Tyrode's buffer composition: 5 mM KCl, 130 mM NaCl, 2 mM CaCl2), 5 mM NaHCO3, 1 mM MgCl2, 20 mM HEPES, pH7.4.
As to `CCc1ccccc1OCc1c(C#N)c(C)nn1-c1ccccc1` [Example 39, 5-[(2-ethylphenoxy)methyl]-3-methyl-1-phenyl-pyrazole-4-carbonitrile], the EC50 was determined as 7.24 µM. As to `Cc1nn(-c2ccccc2)c(COc2cccc(F)c2)c1C#N` [Example 40, 5-[(3-fluorophenoxy)methyl]-3-methyl-1-phenyl-pyrazole-4-carbonitrile], the half-maximal effective concentration (EC50) was 0.79 µM. The result for `Cc1nn(-c2ccccc2)c(COc2ccc(CCCO)cc2F)c1C#N` [Example 42, 5-[[2-fluoro-4-(3-hydroxypropyl)phenoxy]methyl]-3-methyl-1-phenyl-pyrazole-4-carbonitrile] reads 0.49 µM. The result for `Cc1nn(-c2ccccc2)c(COc2ccc(CC(=O)NCCO)cc2)c1C#N` [Example 49, 2-[4-[(4-cyano-5-methyl-2-phenyl-pyrazol-3-yl)methoxy]phenyl]-~{N}-(2-hydroxyethyl)acetamide] reads 18.4 µM; that for `COc1cc(CCCO)ccc1OCc1c(C#N)c(C)nn1-c1ccccc1` [Example 53, 5-[[4-(3-hydroxypropyl)-2-methoxy-phenoxy]methyl]-3-methyl-1-phenyl-pyrazole-4-carbonitrile], 0.52 µM; that for `Cc1nn(-c2ccccc2)c(COc2ccc(C(C)O)cc2)c1C#N` (centres unmarked) [Example 54, 5-[[4-(1-hydroxyethyl)phenoxy]methyl]-3-methyl-1-phenyl-pyrazole-4-carbonitrile], 18.4 µM. Under `COCc1ccc(OCc2c(C#N)c(C)nn2-c2ccccc2)cc1` [Example 55, 5-[[4-(methoxymethyl)phenoxy]methyl]-3-methyl-1-phenyl-pyrazole-4-carbonitrile] stands 2.03 µM; under `COCCc1ccc(OCc2c(C#N)c(C)nn2-c2ccccc2)cc1` [Example 56, 5-[[4-(2-methoxyethyl)phenoxy]methyl]-3-methyl-1-phenyl-pyrazole-4-carbonitrile], 5 µM; under `Cc1nn(-c2ccccc2)c(CSc2ccc(CCO)cc2)c1C#N` [Example 59, 5-[[4-(2-hydroxyethyl)phenyl]sulfanylmethyl]-3-methyl-1-phenyl-pyrazole-4-carbonitrile], 2.63 µM. As for `Cc1nn(-c2ccccc2)c(COc2ccc3n[nH]cc3c2)c1C#N` [Example 61, 5-(2~{H}-indazol-5-yloxymethyl)-3-methyl-1-phenyl-pyrazole-4-carbonitrile], the EC50 was 1.02 µM. The result for `Cc1nn(-c2ccccc2)c(COc2ccc3ccncc3c2)c1C#N` [Example 62, 5-(7-isoquinolyloxymethyl)-3-methyl-1-phenyl-pyrazole-4-carbonitrile] reads 2.6 µM. The result for `Cc1nn(-c2ccccc2)c(COc2cccc3cccnc23)c1C#N` [Example 63, 3-methyl-1-phenyl-5-(8-quinolyloxymethyl)pyrazole-4-carbonitrile] reads 16.4 µM; that for `Cc1nn(-c2ccccc2)c(COc2cccnc2C#N)c1C#N` [Example 64, 3-[(4-cyano-5-methyl-2-phenyl-pyrazol-3-yl)methoxy]pyridine-2-carbonitrile], 19.1 µM.

For `Cc1nn(-c2ccccc2)c(COc2cccnc2F)c1C#N` [Example 65, 5-[(2-fluoro-3-pyridyl)oxymethyl]-3-methyl-1-phenyl-pyrazole-4-carbonitrile], the EC50 was found to be 3.56 µM.

Take `Cc1ccncc1OCc1c(C#N)c(C)nn1-c1ccccc1` [Example 68, 3-methyl-5-[(4-methyl-3-pyridyl)oxymethyl]-1-phenyl-pyrazole-4-carbonitrile]: the EC50 was determined as 8.32 µM. With `Cc1ccc(OCc2c(C#N)c(C)nn2-c2ccccc2)cn1` [Example 69, 3-methyl-5-[(6-methyl-3-pyridyl)oxymethyl]-1-phenyl-pyrazole-4-carbonitrile], the EC50 amounted to 9.82 µM. Consider `Cc1ccnc(C)c1OCc1c(C#N)c(C)nn1-c1ccccc1` [Example 70, 5-[(2,4-dimethyl-3-pyridyl)oxymethyl]-3-methyl-1-phenyl-pyrazole-4-carbonitrile], for which the half-maximal effective concentration (EC50) is 2.3 µM.

For the origin of these results see US11597702B2, “Substituted pyrazoles FFA4/GPR120 receptor agonists” (AXXAM S.P.A., priority 2018, dated 2023).
